This is an account of results in patent US4215136A, “Insoluble metal salts of N-acetyl-tryptophane and use thereof” (Cooperation Pharmaceutique Francaise, priority 1976, dated 1980).

Series [1] is classed as in vivo, male rats. An excerpt:
(B) Interaction with a MAOI after treatment with P.C.P.A.
If the test is renewed under the same conditions but on male rats previously treated by decreasing doses of P.C.P.A. which is a tryptophane-hydroxylase inhibitor, it is observed that: […]

Series [2] is described as follows: Interaction with a monoamine-oxidase inhibitor (MAOI, Tylciprine). Type of series: in vivo, Sprague-Dawley male rats of OFA strain. To be noted: for central nervous action indicated by hyperthermia and hyperactivity: with MAOI (Tylciprine). Here is the method: III--Action on the central nervous system:
(A) Interaction with a monoamine-oxidase inhibitor (MAOI):
Sprague-Dawley male rats of OFA strain received 20 mg/kg intra peritoneally of Tylciprine (MAOI) and twenty minutes later, 3 g/kg of compound A (D,L) bucally.

Series [3] is described as follows: "stress ulcer" technique aggravated by para-chloro-phenyl-alanine (PCPA). Type of series: in vivo, female S.P.F. Sprague-Dawley OFA Iffa-Credo rats. To be noted: PCPA 100 mg/kg intraperitoneally. Here is the method:
(C) Tests according to the "stress ulcer" technique aggravated by para-chloro-phenyl-alanine (PCPA) administered in a non-blocking dose.
The rats used were of the same sex, same strain and had the same weight as those used in the tests described under B. The experimental protocol was also the same.
However, in these tests the rats received intraperitoneally, at the time of stressing, 100 mg/kg of PCPA in suspension in distilled water including 3% of gum arabic and an "absolute control" group was provided having received no preparation before placing under stress.
By reason of the aggravation of the ulcers caused by the PCPA, the Lwoff assessment is no longer usable and is replaced by the following:
2 : three to four ulcers in the form of
5 : one to two ulcers in the form of "fur-
6 : three to four ulcers least 5 mm in length
with a maximum of 4 + 6 = 10.
In this way it was possible to determine the ulceration index and the percentage inhibition with respect to the controls.

The conditions of series [4]: 8640 min.
Series [5] in a line: anti-ulcer activity after administering reserpine. Particulars: p.o., 3 hours before and 3 hours after reserpine 5 mg/kg i.p.; Litchfield and Wilcoxon; 1200 min. The series is classed as in vivo, Sprague-Dawley female rats, OFA S.P.F. Iffa Credo strain. Here is the method: (D) Study of the anti-ulcer activity of compound A (D,L) and of compound B (D,L) after administering reserpine.
The technique used was that of Cohen and A. Pessonnier (Ann. Pharm. Fr (1963) 21, 215-22) according to the following protocol:
Sprague-Dawley female rats were used, of OFA S.P.F. Iffa Credo strain weighing 150±20 g; the rats received a single injection by the intraperitoneal route of 5 mg/kg of reserpine in solution in 0.25% acetic acid; the compound studied were administered twice by the buccal route: three hours before and three hours after the injection of reserpine; the rats were sacrificed 20 hours after the injection of reserpine; the assessment was established as follows:
1 = one to two ulcers in the form of small
2 = more than two ulcers
3 = one to two ulcers in the form of more or
4 = more than two ulcers
5 = one to two ulcers in the form of "furrows"
measuring at least 5 mm
6 = more than two ulcers
Maximum assessment for one stomach : 2 + 4 + 6 = 12
From the results obtained the ulceration index was deduced; the percentage of inhibition was calculated with respect to the index obtained in the controls.
The values of the AD50 calculated according to the method of Litchfield and Wilcoxon are: […]

Series [6] can be described thus: "stress ulcer" test (immobilization). The series is classed as in vivo, female S.P.F. Sprague-Dawley OFA Iffa-Credo rats. Here is the method: (B) Tests according to the technique called "stress ulcer". Rossi and Bonfils--Compte rendus de la Societe de Biologie, (1956), 150, page 2124.
The study was carried out on female S.P.F. Sprague-Dawley OFA Iffa-Credo rats, weighing 140±10 g and adhering to the following experimental protocol.
To cause the ulcer, the animals were immobilized in a flexible grid with meshes of 4×4 mm and suspended horizontally; they received neither food nor drink. They were sacrificed at the end of 24 hours. The stomachs were removed and opened and then the ulcers were counted with a binocular lens.
Each stomach was assessed according to the method of J. M. LWOFF and the ulceration index calculated.
The compound A suspended in distilled water with 3% of gum arabic was administered 48 hours and 24 hours before and at the time of placing under stress to three groups of animals. These animals each received by the oral route, 500, 1000 and 1500 mg/kg of this compound according to their group.
A control group received for three days, orally gummy water in the amount of 1 ml/100 g.
As in the case of "Shay ulcer" the same study was reproduced with kaolin.
The kaolin was suspended in distilled water with 3% of gum arabic and was administered by the buccal route 48 hours and 24 hours before and at the time of placing under stress. […]

Series [7] in a line: Activity on intestinal passage (vegetable carbon). Particulars: 2, 4 and 6 g/kg buccally; 10 minutes. The series is classed as in vivo, male mice. As for the experimental part:
II--Activity on intestinal passage:
Male mice, fasting for 24 hours, weighing 18-20 g. were used.
The substances to be tested were administered buccally before a suspension of vegetable carbon (10 g/100 ml).
After 10 minutes, the animals were bled and the intestine was removed and examined.

A short description of series [8]: "Shay ulcer" test (pylorus ligature). The series is classed as in vivo, female rats (Sprague-Dawley OFA Iffa-Credo). Here is the method: (A) Tests by the technique called "Shay ulcer" [Gastroenterology, 5, 43, (1945)].
The study was carried out on female rats [Sprague-Dawley OFA Iffa-Credo] weighing 170±10 g, conforming to the experimental protocol described below.
After fasting 48 hours, during which the rats had always available to them a 20% glucose solution, the pylorus was ligated and all beverage was eliminated.
Compound A in the form of two suspensions respectively 5 and 10% in distilled water containing 3% of gum arabic was administered orally and before the ligature of the pylorus to three groups of animals, the animals of the first two groups receiving the 5% solution and those of the third the 10% solution. These three groups of animals received active substance to the extent respectively of 250 mg/kg as regards those of the first group, 500 mg/kg as regards those of the second and 1000 mg/kg those of the third. A fourth group and control group of animals received 10 ml/kg of bidistilled water. […]
The tests having been carried out with aluminium acetyl-tryptophanate (compound A), on the one hand, and with titanium acetyl-tryptophanate (compound B), on the other hand, for each of these compounds there was determined, the "anti-ulcer dose 50" (or again active dose AD 50) by oral administration; for this determination the method of Litchfield and Wilcoxon [J. Pharmacol. 96, 98-111 (1949)], was employed. […]

[9] abbreviates: after PCPA 6 mg/kg for 1 day, Tylciprine.
The mark [10] stands for this setting: 2 g/kg, Tylciprine 20 mg/kg i.p.
Where [11] appears, read: 3 g/kg bucally, Tylciprine 20 mg/kg i.p.

Structures are written as SMILES. Where two headings read alike, the source gives them in different places.

`CC(=O)N[C@@H](Cc1c[nH]c2ccccc12)C(=O)[O-].CC(=O)N[C@@H](Cc1c[nH]c2ccccc12)C(=O)[O-].CC(=O)N[C@@H](Cc1c[nH]c2ccccc12)C(=O)[O-].[Al+3]` [Compound A, monobasic-(DL) aluminium N-acetyl-tryptophanate]: in series [1] (setting [9]), the hyperactivity result is listed as “notable hyperactivity” and the rectal temperature result was “without variation in the rectal temperature”. The hyperactivity entry in series [1] (after PCPA 12.5 mg/kg for 1 day, Tylciprine) is reported as “first signs of hyperactivity”. In addition, the hyperthermia and hyperactivity result in series [1] (after PCPA 50 mg/kg for 2 days, Tylciprine) is “neither hyperthermia nor hyperactivity”. In addition, the “passage through the hemato-cerebral barrier” value in series [1] (rat, in vivo) is reported as “passage of its anion through the hemato-cerebral barrier”. In addition, in series [2] (setting [10]), the hyperactivity entry was “notable hyperactivity” and the hyperthermia entry was “does not cause hyperthermia”. In series [2] (3 g/kg bucally, 20 minutes after Tylciprine 20 mg/kg i.p.), the hyperthermia entry was “Hyperthermia was observed which commenced fairly rapidly”. Moreover, in series [2] (setting [11]), the hyperactivity entry is “hyperactivity”, the onset of hyperactivity is 80 min, the “time of maximum hyperactivity” value is 155 min and the “time of maximum hyperthermia” value came to 185 min. In addition, the “central nervous action indicated by hyperthermia and hyperactivity” value in series [2] is “apparently central nervous serotoninergic action, that is to say antidepressive”. The “anti-ulcer activity, stress ulcer aggravated by PCPA (in words)” value in series [3] is “still considerable”. Moreover, the “AD50, stress ulcer aggravated by PCPA” value in series [3] (oral route) is on record as 1325 mg/kg. Also, the “LD50 (higher than the total dose without mortality)” value in series [4] (oral, six days) was more than 15000 mg/kg. For the same compound, in series [4] (orally), the “LD 50” value is more than 15000 mg/kg. In addition, in series [5], the “AD50, reserpine ulcer” value amounted to 1447 mg/kg. Further, the “AD 50, stress ulcer” value in series [6] (buccal route, 48 h and 24 h before and at time of stress, sacrificed at 24 hours) was 700 mg/kg. Also, in series [6] (stress ulcer compared with Shay ulcer), the “superiority of compound A (over kaolin), stress ulcer versus Shay ulcer” value is given as “still much more marked”. In addition, in series [7], the “increase of intestinal passage with respect to the controls” value is “No significant increase”. In series [8] (Shay ulcer), the “activity relative to that expected by reason of Al^3+ / Ti^4+ ions alone” value is “about 7 times higher”. Moreover, in series [8] (oral, before ligature of the pylorus, 18 hours, Litchfield and Wilcoxon), the “AD 50 (anti-ulcer dose 50), Shay ulcer” value is listed as 550 mg/kg.
Regarding `N[C@@H](Cc1c[nH]c2ccccc12)C(=O)O` [L-tryptophane], the “central nervous action indicated by hyperthermia and hyperactivity” value in series [2] was “comparable activities”.
